In US20060019951A1, “Vacuolins” (CBR Institute for Biomedical Research, priority 2002, published 2006):

Tested on: vacuole formation in cells exposed to a vacuolin
Test: Conditions under which vacuole formation is blocked in cells exposed to a vacuolin
Assay type: cell-based
Details: FIGS. 8-10
Description: Additional studies were directed at identifying conditions under which vacuole formation is blocked (see, for example, FIGS. 8-10). […] It is likely that the intravacuolar pH is higher than the low pH of lysosomes; the vacuoles are likely to accumulate Cl ions (see, for example, FIG. 11).

CO/C1=C\C(C)=C\[C@@H](C)[C@@H](O)[C@@H](C)C/C(C)=C/C=C/[C@H](OC)[C@@H]([C@@H](C)[C@@H](O)[C@H](C)[C@@]2(O)C[C@@H](O)[C@H](C)[C@@H](C(C)C)O2)OC1=O [bafilomycin A]
effect on vacuole formation in cells exposed to a vacuolin: inhibited
